Holding throughout (experiment): relative viability (nuclei count vs DMSO), 5 days (fraction); higher = more cells survive
Compound in the assay “AT9283 + Palbociclib”: O=C(Nc1c[nH]nc1-c1nc2ccc(CN3CCOCC3)cc2[nH]1)NC1CC1 [AT9283] + CC(=O)c1c(C)c2cnc(Nc3ccc(N4CCNCC4)cn3)nc2n(C2CCCC2)c1=O [Palbociclib] (partner 0.5 µM)
The procedure, abridged: (§1)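 Relative viability divides the nuclei count in treated wells by that in vehicle wells. Lung cancer cell lines were seeded in 1536-well plates, dosed by pin tool the next day, and fixed and stained after 5 days in one step with final 0.05% Triton X-100, 1% formaldehyde and 1 ug/ml Hoechst. Dosing was a single drug or a fixed anchor-drug dose plus five library-drug doses (not always all listed) in √10 steps, and values are medians of duplicate plates imaged at 4×.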

Compound in the assay “AT9283 + Dasatinib”: O=C(Nc1c[nH]nc1-c1nc2ccc(CN3CCOCC3)cc2[nH]1)NC1CC1 [AT9283] + Cc1nc(Nc2ncc(C(=O)Nc3c(C)cccc3Cl)s2)cc(N2CCN(CCO)CC2)n1 [Dasatinib] (partner 0.075 µM)
In a few lines:
as §1

Compound in the assay “Erlotinib + Lapatinib”: C#Cc1cccc(Nc2ncnc3cc(OCCOC)c(OCCOC)cc23)c1 [Erlotinib] + CS(=O)(=O)CCNCc1ccc(-c2ccc3ncnc(Nc4ccc(OCc5cccc(F)c5)c(Cl)c4)c3c2)o1 [Lapatinib] (partner 2 µM)
The procedure, abridged:
as §1

Compound in the assay “AT9283 + Trametinib”: O=C(Nc1c[nH]nc1-c1nc2ccc(CN3CCOCC3)cc2[nH]1)NC1CC1 [AT9283] + CC(=O)Nc1cccc(-n2c(=O)n(C3CC3)c(=O)c3c(Nc4ccc(I)cc4F)n(C)c(=O)c(C)c32)c1 [Trametinib] (partner 0.02 µM)
The procedure, abridged:
as §1

Compound in the assay “Erlotinib + Trametinib”: C#Cc1cccc(Nc2ncnc3cc(OCCOC)c(OCCOC)cc23)c1 [Erlotinib] + CC(=O)Nc1cccc(-n2c(=O)n(C3CC3)c(=O)c3c(Nc4ccc(I)cc4F)n(C)c(=O)c(C)c32)c1 [Trametinib] (partner 0.02 µM)
In a few lines:
as §1

Among the data in the supplement of paper PMC10307832 are relative viability values, retold here.

With SK-MES-1, the relative viability with AT9283 + Palbociclib (first compound 0.003 µM) worked out at 0.365; with AT9283 + Palbociclib (first compound 0.03 µM), 0.311; in the assay with AT9283 + Palbociclib (first compound 0.09487 µM), 0.255; in the assay with AT9283 + Palbociclib (first compound 0.3 µM), 0.2; with AT9283 + Dasatinib (first compound 0.003 µM), 0.56; with AT9283 + Dasatinib (first compound 0.03 µM), 0.25. Further, the relative viability is 0.0729 with AT9283 + Dasatinib (first compound 0.09487 µM); 0.0952 with AT9283 + Dasatinib (first compound 0.3 µM); 0.511 with Erlotinib + Lapatinib (first compound 0.02 µM); 0.452 with Erlotinib + Lapatinib (first compound 0.2 µM); 0.476 with Erlotinib + Lapatinib (first compound 0.6325 µM); 0.434 with Erlotinib + Lapatinib (first compound 2 µM). Further, the relative viability with AT9283 + Trametinib (first compound 0.003 µM) is 0.643; with AT9283 + Trametinib (first compound 0.03 µM), 0.594; with AT9283 + Trametinib (first compound 0.09487 µM) it was 0.541; in the assay with AT9283 + Trametinib (first compound 0.3 µM), 0.276; in the assay with Erlotinib + Trametinib (first compound 0.02 µM) it was 0.494; in the assay with Erlotinib + Trametinib (first compound 0.2 µM), 0.345. Moreover, the values for the relative viability in the assay with Erlotinib + Trametinib (first compound 0.6325 µM) and in the assay with Erlotinib + Trametinib (first compound 2 µM) were 0.347 and 0.312, respectively.
As to NCI-H1755, the relative viability is 0.434 in the assay with AT9283 + Palbociclib (first compound 0.003 µM); 0.463 in the assay with AT9283 + Palbociclib (first compound 0.03 µM); 0.469 with AT9283 + Palbociclib (first compound 0.09487 µM); 0.499 with AT9283 + Palbociclib (first compound 0.3 µM); 0.451 with AT9283 + Dasatinib (first compound 0.003 µM); 0.437 with AT9283 + Dasatinib (first compound 0.03 µM). Also, the relative viability in the assay with AT9283 + Dasatinib (first compound 0.09487 µM) stood at 0.265; with AT9283 + Dasatinib (first compound 0.3 µM), 0.272; with Erlotinib + Lapatinib (first compound 0.2 µM) it was 1.06; in the assay with Erlotinib + Lapatinib (first compound 0.6325 µM), 1.09; in the assay with Erlotinib + Lapatinib (first compound 2 µM), 1.02; in the assay with AT9283 + Trametinib (first compound 0.003 µM), 0.8. Further, the relative viability came to 0.815 with AT9283 + Trametinib (first compound 0.03 µM); 0.637 with AT9283 + Trametinib (first compound 0.09487 µM); 0.557 in the assay with AT9283 + Trametinib (first compound 0.3 µM); 0.793 with Erlotinib + Trametinib (first compound 0.02 µM); 0.774 with Erlotinib + Trametinib (first compound 0.2 µM); 0.816 in the assay with Erlotinib + Trametinib (first compound 0.6325 µM). In the assay with Erlotinib + Trametinib (first compound 2 µM), the relative viability was determined as 0.737.
For the cell line LU99A, the relative viability with AT9283 + Palbociclib (first compound 0.003 µM) was 0.358; in the assay with AT9283 + Palbociclib (first compound 0.03 µM) it was 0.226; with AT9283 + Palbociclib (first compound 0.09487 µM), 0.14; with AT9283 + Palbociclib (first compound 0.3 µM), 0.139; in the assay with AT9283 + Dasatinib (first compound 0.003 µM), 0.546; in the assay with AT9283 + Dasatinib (first compound 0.03 µM), 0.195. Moreover, the relative viability with AT9283 + Dasatinib (first compound 0.09487 µM) is 0.229; in the assay with AT9283 + Dasatinib (first compound 0.3 µM) it was 0.247; in the assay with Erlotinib + Lapatinib (first compound 0.02 µM), 1.1; with Erlotinib + Lapatinib (first compound 0.2 µM), 0.999; with Erlotinib + Lapatinib (first compound 0.6325 µM), 1.05; in the assay with Erlotinib + Lapatinib (first compound 2 µM) it was 0.768. Besides, the relative viability with AT9283 + Trametinib (first compound 0.003 µM) was determined as 0.539; with AT9283 + Trametinib (first compound 0.03 µM) it was 0.327; with AT9283 + Trametinib (first compound 0.09487 µM), 0.178; with AT9283 + Trametinib (first compound 0.3 µM), 0.217; with Erlotinib + Trametinib (first compound 0.02 µM), 0.705; with Erlotinib + Trametinib (first compound 0.2 µM) it was 0.583. In addition, the relative viability is 0.643 with Erlotinib + Trametinib (first compound 0.6325 µM) and 0.484 with Erlotinib + Trametinib (first compound 2 µM).
In the case of LCLC-97TM1, the relative viability with AT9283 + Palbociclib (first compound 0.003 µM) stood at 0.199; with AT9283 + Palbociclib (first compound 0.03 µM), 0.201; with AT9283 + Palbociclib (first compound 0.09487 µM), 0.106; with AT9283 + Palbociclib (first compound 0.3 µM), 0.0962; with AT9283 + Dasatinib (first compound 0.003 µM) it was 0.798; with AT9283 + Dasatinib (first compound 0.03 µM) it was 0.492. The relative viability with AT9283 + Dasatinib (first compound 0.09487 µM) worked out at 0.255; with AT9283 + Dasatinib (first compound 0.3 µM), 0.162; with Erlotinib + Lapatinib (first compound 0.02 µM), 1.36; with Erlotinib + Lapatinib (first compound 0.6325 µM) it was 0.929; with Erlotinib + Lapatinib (first compound 2 µM) it was 0.846; in the assay with AT9283 + Trametinib (first compound 0.003 µM), 0.203. Besides, the relative viability with AT9283 + Trametinib (first compound 0.03 µM) amounted to 0.159; with AT9283 + Trametinib (first compound 0.09487 µM), 0.119; with AT9283 + Trametinib (first compound 0.3 µM) it was 0.123; with Erlotinib + Trametinib (first compound 0.02 µM), 0.197; with Erlotinib + Trametinib (first compound 0.2 µM), 0.197; with Erlotinib + Trametinib (first compound 0.6325 µM) it was 0.163. Further, in the assay with Erlotinib + Trametinib (first compound 2 µM), the relative viability was 0.168.
Regarding NCI-H522, the relative viability with AT9283 + Palbociclib (first compound 0.003 µM) was determined as 0.945; with AT9283 + Palbociclib (first compound 0.03 µM), 0.731; in the assay with AT9283 + Palbociclib (first compound 0.09487 µM), 0.577; with AT9283 + Palbociclib (first compound 0.3 µM), 0.585; with AT9283 + Dasatinib (first compound 0.003 µM) it was 0.66; with AT9283 + Dasatinib (first compound 0.03 µM) it was 0.678. Moreover, the relative viability with AT9283 + Dasatinib (first compound 0.09487 µM) worked out at 0.583; with AT9283 + Dasatinib (first compound 0.3 µM), 0.476; in the assay with AT9283 + Trametinib (first compound 0.003 µM) it was 0.736; in the assay with AT9283 + Trametinib (first compound 0.03 µM), 0.811; in the assay with AT9283 + Trametinib (first compound 0.09487 µM), 0.599; with AT9283 + Trametinib (first compound 0.3 µM), 0.415. In addition, the relative viability with Erlotinib + Trametinib (first compound 0.02 µM) was 0.665; with Erlotinib + Trametinib (first compound 0.2 µM), 0.697; in the assay with Erlotinib + Trametinib (first compound 0.6325 µM), 0.705; with Erlotinib + Trametinib (first compound 2 µM), 0.676.
Take NCI-H1666: the relative viability with AT9283 + Palbociclib (first compound 0.003 µM) is 0.619; with AT9283 + Palbociclib (first compound 0.03 µM), 0.691; with AT9283 + Palbociclib (first compound 0.09487 µM), 0.524; in the assay with AT9283 + Palbociclib (first compound 0.3 µM) it was 0.534; in the assay with AT9283 + Dasatinib (first compound 0.003 µM) it was 0.866; with AT9283 + Dasatinib (first compound 0.03 µM) it was 0.682. Besides, the relative viability was determined as 0.574 with AT9283 + Dasatinib (first compound 0.09487 µM); 0.431 in the assay with AT9283 + Dasatinib (first compound 0.3 µM); 0.714 in the assay with Erlotinib + Lapatinib (first compound 0.02 µM); 0.552 in the assay with Erlotinib + Lapatinib (first compound 0.2 µM); 0.698 with Erlotinib + Lapatinib (first compound 0.6325 µM); 0.699 with Erlotinib + Lapatinib (first compound 2 µM). For the same cell line, the relative viability stood at 0.852 with AT9283 + Trametinib (first compound 0.003 µM); 0.721 with AT9283 + Trametinib (first compound 0.03 µM); 0.637 with AT9283 + Trametinib (first compound 0.09487 µM); 0.474 with AT9283 + Trametinib (first compound 0.3 µM); 0.904 with Erlotinib + Trametinib (first compound 0.02 µM); 0.736 with Erlotinib + Trametinib (first compound 0.2 µM). The relative viability was determined as 0.78 in the assay with Erlotinib + Trametinib (first compound 0.6325 µM) and 0.709 with Erlotinib + Trametinib (first compound 2 µM).
NCI-H2347: the relative viability with AT9283 + Palbociclib (first compound 0.003 µM) was found to be 0.444; with AT9283 + Palbociclib (first compound 0.03 µM), 0.515; with AT9283 + Palbociclib (first compound 0.09487 µM), 0.475; with AT9283 + Palbociclib (first compound 0.3 µM), 0.346; with AT9283 + Dasatinib (first compound 0.003 µM), 0.342; with AT9283 + Dasatinib (first compound 0.03 µM), 0.313. Moreover, the relative viability worked out at 0.26 with AT9283 + Dasatinib (first compound 0.09487 µM); 0.223 in the assay with AT9283 + Dasatinib (first compound 0.3 µM); 1.04 with Erlotinib + Lapatinib (first compound 0.02 µM); 1.08 with Erlotinib + Lapatinib (first compound 0.2 µM); 0.806 with Erlotinib + Lapatinib (first compound 0.6325 µM); 0.882 with Erlotinib + Lapatinib (first compound 2 µM). The relative viability is 0.292 with AT9283 + Trametinib (first compound 0.003 µM); 0.269 in the assay with AT9283 + Trametinib (first compound 0.03 µM); 0.275 with AT9283 + Trametinib (first compound 0.09487 µM); 0.262 with AT9283 + Trametinib (first compound 0.3 µM); 0.268 with Erlotinib + Trametinib (first compound 0.02 µM); 0.482 in the assay with Erlotinib + Trametinib (first compound 0.2 µM). The figures for the relative viability with Erlotinib + Trametinib (first compound 0.6325 µM) and in the assay with Erlotinib + Trametinib (first compound 2 µM) were 0.275 and 0.285, respectively.
With NCI-H441, the relative viability was found to be 0.247 with AT9283 + Palbociclib (first compound 0.003 µM); 0.236 with AT9283 + Palbociclib (first compound 0.03 µM); 0.205 with AT9283 + Palbociclib (first compound 0.09487 µM); 0.175 with AT9283 + Palbociclib (first compound 0.3 µM); 0.567 in the assay with AT9283 + Dasatinib (first compound 0.003 µM); 0.49 in the assay with AT9283 + Dasatinib (first compound 0.03 µM). For the same cell line, the relative viability with AT9283 + Dasatinib (first compound 0.09487 µM) is 0.318; in the assay with AT9283 + Dasatinib (first compound 0.3 µM) it was 0.209; with AT9283 + Trametinib (first compound 0.003 µM), 0.259; with AT9283 + Trametinib (first compound 0.03 µM), 0.439; with AT9283 + Trametinib (first compound 0.09487 µM), 0.423; with AT9283 + Trametinib (first compound 0.3 µM), 0.22. For the same cell line, the relative viability with Erlotinib + Trametinib (first compound 0.02 µM) is 0.457; with Erlotinib + Trametinib (first compound 0.6325 µM) it was 0.442; with Erlotinib + Trametinib (first compound 2 µM), 0.328.
